Test results taken from patent US6548072B1, “Skin care compositions containing an organic extract of chick pea” (Chesebrough-Pond's USA Co., division of Conopco, Inc., priority 1997, dated 2003).

What was measured:
[1] = tested on: piglet epidermal cells; experiment: Piglet skin organ culture, 3H-thymidine incorporation into the epidermis; format: cell-based, pig
Text: Pig skin is morphologically and biochemically similar to human skin and is therefore used commonly for testing the effects of materials for, human topical use. Fresh shaved skin from piglets was obtained from the local slaughter house, washed with Dove® Soap and dermatomed at 200μ thickness to obtain the top epidermis and dermal layer. Uniform punch biopsies of the dermatomed pig skin was taken using a 7 mm punch. The biopsies were washed in medium containing high antibiotic/antimycotic mix(Kanamycin and penicillin and streptomycin from Gibco) and incubated for 3 days in high glucose DMEM medium containing hydrocortisone, L-glutamine, antibiotic and antimycotic in the absence of serum in transwell plates, 3 biopsies per well. The medium was fed from the bottom of the transwell so that the epidermal side of the biopsies was in contact with air. On the 3rd day, the medium was changed to fresh medium, and the biopsies were exposed to the various concentrations of various actives in 1 μl of DMSO, as indicated in Table 4. 3 days later, medium was changed, actives readded and the biopsies were labeled with 10 μCi of 3H thymidine per well. After washing the biopsies in PBS, the epidermis was split from the dermis by incubating the biopsies for 24 hrs in 2 M sodium bromide solution with shaking. The epidermis was peeled off from the dermis using a tweezer and dissolved in1 ml of 0.5N NaOH with overnight incubation at 60 ° C. 200 μl of the dissolved epidermis was used for scintillation counting to determine the amount of ^3H thymidine incorporation into the epidermis. The data was calculated as mean cpm for at least 4 replicates, and was also calculated as % of control biopsies which received no actives.

[2] = tested on: ZR75 cells; experiment: 3H-thymidine incorporation (DNA synthesis / proliferation) in ZR75 cells, test for estrogen-like activity; format: cell-based, human; settings: for ZR 75 DNA synthesis (% of Control): Experiment 1; for % of Control / cpm ± SD: 10 nM
Text: The incorporation of ^3H-thymidine by cultured cells was used as an assay of cell proliferation (ZR75 or keratinocyte). Thymidine is one of four deoxynucleosides which are the monomeric units of DNA. Prior to cell division of a somatic cell, the complete genome of the cell undergoing cell division is replicated. This involves large scale DNA synthesis by the cell and enables both daughter cells to receive identical copies of the genetic material. When ^3H-thymidine is included in the culture media of cells which are synthesizing DNA in preparation for cell division then the labeled thymidine is incorporated into the newly synthesized DNA. The extent of incorporation of ^3H-thymidine into a population of cells is proportional to the rate of DNA synthesis. by this population of cells and therefore an indication of their cellular proliferation.
ZR75 cell line is a ductal breast carcinoma cell line, originally isolated from malignant mammary epithelium of a person (Engel et al., Human breast carcinoma cells in continuous culture: A review., Cancer Res., 38: 4327-4339, 1978) This cell line contains receptors for estrogen, progesterone and other steroid hormones, but responds through an increase in proliferation only to estrogen. The cell line contains high affinity estrogen-specific receptors. Therefore, this cell line is used for testing estrogen-like activity (Markiewicz et al., In vitro bioassays of non-steroidal phytoestrogens, J. Steroid Biochem. Molec. Biol., 45: 399-405, 1993).
1. ZR75 cells (from American Type Culture Collection, Rockville, Md.) were grown in RPMT1640 media (from Gibco Life Technologies) with 10% fetal bovine serum (FBS), 100 units penicillin per ml and 100 units of streptomycin per ml. […] The. cells were seeded at a density of one million per 75 cm2 flask. For the experiment, the cells were seeded in 24 well plates at 100,000 cells per ml per well.
2. After growing for 24 hours, the media was removed, the cells were washed with PBS and 1 ml of RPMI 1640 without serum (but with streptomycin and penicillin) was added. Stock solutions of chick pea extract in dimethyl sulfoxide. (DMSO) and estradiol in water were prepared. […] After another 24 hours, […] of [methyl-3H] thymidine was added to each well. The media was removed after 24 hours. The cells were washed once in PBS, the PBS was removed completely and the cells were left on ice to incubate with 1 ml per well of10% TCA (trichlioroacetic acid) for 30 minutes. The plates were washed 3 times with 5% TCA to remove all traces of thymidine which wasn't incorporated into the cells. 500 μl of 0.1M sodium hydroxide was added to each well and the plates were incubated at room temperature for at least 30 minutes. 250 μl of each sample was transferred to scintillation vials and after adding 5 ml of counting fluid, the vials were counted for 5 minutes each on a setting for tritium. […] Values were expressed as mean of triplicate wells ± standard deviation.

O=c1c(-c2ccc(O)cc2)coc2cc(O)ccc12 [Daidzein, daidzein]
proliferation of piglet epidermal cells, in words [1]: more effective than the natural hormone estradiol
% of Control ([1]; Experiment 1, 1 μg/ml): 227 ± 24.4 % of Control
cpm ± SD ([1]; Experiment 1, 1 μg/ml): 8599 ± 927 cpm
% of Control ([1]; Experiment 1, 10 μg/ml): 292 ± 76.5 % of Control
cpm ± SD ([1]; Experiment 1, 10 μg/ml): 11065 ± 2901 cpm

C[C@]12CC[C@@H]3c4ccc(O)cc4CC[C@H]3[C@@H]1CC[C@@H]2O [Estradiol, estradiol]
ZR 75 DNA synthesis (% of Control) ([2]; 0.01 nM): 117 ± 19.7 % of Control
ZR 75 DNA synthesis (% of Control) ([2]; 0.1 nM): 106 ± 16.3 % of Control
ZR 75 DNA synthesis (% of Control) ([2]; 1.0 nM): 162 ± 3.2 % of Control
ZR 75 DNA synthesis (% of Control) ([2]; 10.0 nM): 267 ± 15.1 % of Control
ZR 75 DNA synthesis (% of Control) ([2]; 100 nM): 203 ± 51.2 % of Control
ZR 75 DNA synthesis (% of Control) ([2]; 1000 nM): 178 ± 20.1 % of Control
% of Control ([2]; Experiment 2): 839 ± 27 % of Control
cpm ± SD ([2]; Experiment 2): 122254 ± 3940 cpm
% of Control ([2]; Experiment 3): 211 ± 7.6 % of Control
cpm ± SD ([2]; Experiment 3): 30158 ± 1087 cpm
concentration that increased DNA synthesis of ZR75 cells ([2]; Table 1): ≥ 1 nM
% of Control ([1]; Experiment 1, 1 nM): 58.9 ± 24.4 % of Control
cpm ± SD ([1]; Experiment 1, 1 nM): 2690 ± 1113 cpm
% of Control ([1]; Experiment 1, 10 nM): 113 ± 24 % of Control
cpm ± SD ([1]; Experiment 1, 10 nM): 5190 ± 1096 cpm
% of Control ([1]; Experiment 1, 100 nM): 39.0 ± 32.6 % of Control
cpm ± SD ([1]; Experiment 1, 100 nM): 1757 ± 1492 cpm
% of Control ([1]; Experiment 2, 1 nM): 196 ± 67.7 % of Control
cpm ± SD ([1]; Experiment 2, 1 nM): 2273 ± 783 cpm
% of Control ([1]; Experiment 2, 10 nM): 330 ± 101 % of Control
cpm ± SD ([1]; Experiment 2, 10 nM): 3817 ± 1175 cpm
% of Control ([1]; Experiment 2, 100 nM): 241 ± 65 % of Control
cpm ± SD ([1]; Experiment 2, 100 nM): 2785 ± 751 cpm

COc1ccc(-c2coc3cc(O)ccc3c2=O)cc1 [Formononetin, formononetin]
% of Control ([1]; Experiment 1, 1 μg/ml): 126 ± 33.2 % of Control
cpm ± SD ([1]; Experiment 1, 1 μg/ml): 4770 ± 1260 cpm
% of Control ([1]; Experiment 1, 10 μg/ml): 174 ± 76.1 % of Control
cpm ± SD ([1]; Experiment 1, 10 μg/ml): 6608 ± 2886 cpm
